Test results reported in PubChem BioAssay (NCI).
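Interpolation was linear, between the two tested concentrations surrounding the appropriate level; five concentrations were tested over 48 hours in 96-well plates. GI50 is the concentration that inhibits growth by half. The concentration for full growth arrest is given as TGI.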

Legend:
Test in all cases: DTP human tumour cell line panel, 48 h
UACC-257 melanoma = tested on: UACC-257 melanoma
UO-31 renal = tested on: UO-31 renal
HOP-62 NSCLC = tested on: HOP-62 NSCLC
SK-MEL-2 melanoma = tested on: SK-MEL-2 melanoma
HS 578T breast = tested on: HS 578T breast
SW-620 colon = tested on: SW-620 colon
HL-60(TB) leukemia = tested on: HL-60(TB) leukemia
K-562 leukemia = tested on: K-562 leukemia
T-47D breast = tested on: T-47D breast
MALME-3M melanoma = tested on: MALME-3M melanoma
NCI-H460 lung = tested on: NCI-H460 lung
SK-MEL-5 melanoma = tested on: SK-MEL-5 melanoma
NCI/ADR-RES ovarian = tested on: NCI/ADR-RES ovarian
ACHN renal = tested on: ACHN renal
UACC-62 melanoma = tested on: UACC-62 melanoma
786-0 renal = tested on: 786-0 renal
A549 NSCLC = tested on: A549 NSCLC
EKVX NSCLC = tested on: EKVX NSCLC
COLO 205 colon = tested on: COLO 205 colon
MDA-MB-231 breast = tested on: MDA-MB-231 breast
BT-549 breast = tested on: BT-549 breast
PC-3 prostate = tested on: PC-3 prostate
LOX IMVI melanoma = tested on: LOX IMVI melanoma
MDA-MB-435 = tested on: MDA-MB-435
OVCAR-3 ovarian = tested on: OVCAR-3 ovarian
HCC-2998 colon = tested on: HCC-2998 colon
HCT-15 colon = tested on: HCT-15 colon
OVCAR-8 ovarian = tested on: OVCAR-8 ovarian
A498 renal = tested on: A498 renal
U251 CNS = tested on: U251 CNS
NCI-H522 lung = tested on: NCI-H522 lung
SNB-19 CNS = tested on: SNB-19 CNS
SK-MEL-28 melanoma = tested on: SK-MEL-28 melanoma
OVCAR-5 ovarian = tested on: OVCAR-5 ovarian
IGROV1 ovarian = tested on: IGROV1 ovarian
RPMI-8226 leukemia = tested on: RPMI-8226 leukemia
SF-295 CNS = tested on: SF-295 CNS
MOLT-4 leukemia = tested on: MOLT-4 leukemia
MCF7 breast = tested on: MCF7 breast
KM12 colon = tested on: KM12 colon
SR leukemia = tested on: SR leukemia
HT29 colon = tested on: HT29 colon
SN12C renal = tested on: SN12C renal
HCT-116 colon = tested on: HCT-116 colon
NCI-H23 lung = tested on: NCI-H23 lung
SF-539 CNS = tested on: SF-539 CNS
M14 melanoma = tested on: M14 melanoma
TK-10 renal = tested on: TK-10 renal
NCI-H226 lung = tested on: NCI-H226 lung
OVCAR-4 ovarian = tested on: OVCAR-4 ovarian
SF-268 CNS = tested on: SF-268 CNS
RXF 393 renal = tested on: RXF 393 renal
CAKI-1 renal = tested on: CAKI-1 renal
HOP-92 NSCLC = tested on: HOP-92 NSCLC
DU-145 prostate = tested on: DU-145 prostate
CCRF-CEM leukemia = tested on: CCRF-CEM leukemia
SNB-75 CNS = tested on: SNB-75 CNS
SK-OV-3 ovarian = tested on: SK-OV-3 ovarian

O=C1C=CC(=O)c2c(NCC3CC3)ccc(NCC3CC3)c21
TGI (UACC-257 melanoma): 61.8 µM | TGI (UO-31 renal): > 100 µM | TGI (HOP-62 NSCLC): > 100 µM | TGI (SK-MEL-2 melanoma): > 100 µM | TGI (HS 578T breast): > 100 µM | TGI (SW-620 colon): > 100 µM | TGI (HL-60(TB) leukemia): 31.8 µM | TGI (K-562 leukemia): 53.9 µM | TGI (T-47D breast): 65.6 µM | TGI (MALME-3M melanoma): 49.2 µM | TGI (NCI-H460 lung): > 100 µM | TGI (SK-MEL-5 melanoma): 52 µM | TGI (NCI/ADR-RES ovarian): > 100 µM | TGI (ACHN renal): > 100 µM | TGI (UACC-62 melanoma): 65.3 µM | TGI (786-0 renal): > 100 µM | TGI (A549 NSCLC): > 100 µM | TGI (EKVX NSCLC): > 100 µM | TGI (COLO 205 colon): 41.4 µM | TGI (MDA-MB-231 breast): > 100 µM | TGI (BT-549 breast): > 100 µM | TGI (PC-3 prostate): > 100 µM | TGI (LOX IMVI melanoma): 43 µM | TGI (MDA-MB-435): 44.8 µM | TGI (OVCAR-3 ovarian): 63.4 µM | TGI (HCC-2998 colon): > 100 µM | TGI (HCT-15 colon): > 100 µM | TGI (OVCAR-8 ovarian): > 100 µM | TGI (A498 renal): > 100 µM | TGI (U251 CNS): > 100 µM | TGI (NCI-H522 lung): 15.9 µM | TGI (SNB-19 CNS): > 100 µM | TGI (SK-MEL-28 melanoma): 99.1 µM | TGI (OVCAR-5 ovarian): > 100 µM | TGI (IGROV1 ovarian): > 100 µM | TGI (RPMI-8226 leukemia): 47.4 µM | TGI (SF-295 CNS): 79.8 µM | TGI (MOLT-4 leukemia): 44.9 µM | TGI (MCF7 breast): 48.6 µM | TGI (KM12 colon): > 100 µM | TGI (SR leukemia): > 100 µM | TGI (HT29 colon): 88.4 µM | TGI (SN12C renal): > 100 µM | TGI (HCT-116 colon): > 100 µM | TGI (NCI-H23 lung): 89.4 µM | TGI (SF-539 CNS): > 100 µM | TGI (M14 melanoma): 56.8 µM | TGI (TK-10 renal): > 100 µM

CN(C)c1ccc(-c2cc(-c3ccc(Nc4nc(Nc5ccccc5)nc(Nc5ccc(Cl)cc5)n4)cc3)nc(N)n2)cc1
GI50 (NCI-H226 lung): 12.1 µM | TGI (NCI-H226 lung): 98.7 µM | GI50 (UACC-257 melanoma): 5.81 µM | TGI (UACC-257 melanoma): 37.4 µM | GI50 (UO-31 renal): 2.69 µM | TGI (UO-31 renal): > 100 µM | GI50 (HOP-62 NSCLC): 8.01 µM | TGI (HOP-62 NSCLC): 42.4 µM | GI50 (SK-MEL-2 melanoma): 7.18 µM | TGI (SK-MEL-2 melanoma): 43.5 µM | GI50 (HS 578T breast): 2.57 µM | TGI (HS 578T breast): 20.2 µM | GI50 (SW-620 colon): 6.86 µM | TGI (SW-620 colon): 21.8 µM | GI50 (HL-60(TB) leukemia): 3.2 µM | TGI (HL-60(TB) leukemia): 12.2 µM | GI50 (K-562 leukemia): 2.61 µM | TGI (K-562 leukemia): 11.4 µM | GI50 (T-47D breast): 3.04 µM | TGI (T-47D breast): 17.9 µM | GI50 (OVCAR-4 ovarian): 5.01 µM | TGI (OVCAR-4 ovarian): > 100 µM | GI50 (MALME-3M melanoma): 4.07 µM | TGI (MALME-3M melanoma): 49.2 µM | GI50 (NCI-H460 lung): 3.71 µM | TGI (NCI-H460 lung): 14.1 µM | GI50 (SK-MEL-5 melanoma): 1.89 µM | TGI (SK-MEL-5 melanoma): 11.6 µM | GI50 (NCI/ADR-RES ovarian): 9.23 µM | TGI (NCI/ADR-RES ovarian): > 100 µM | GI50 (ACHN renal): 5.88 µM | TGI (ACHN renal): > 100 µM | GI50 (UACC-62 melanoma): 6.26 µM | TGI (UACC-62 melanoma): 40 µM | GI50 (786-0 renal): 6.32 µM | TGI (786-0 renal): 46 µM | GI50 (A549 NSCLC): 5.34 µM | TGI (A549 NSCLC): > 100 µM | GI50 (SF-268 CNS): 6.69 µM | TGI (SF-268 CNS): 56.4 µM | GI50 (EKVX NSCLC): 1.82 µM | TGI (EKVX NSCLC): > 100 µM | GI50 (COLO 205 colon): 2.04 µM | TGI (COLO 205 colon): 11.6 µM | GI50 (MDA-MB-231 breast): 5.64 µM | TGI (MDA-MB-231 breast): 23.4 µM | GI50 (BT-549 breast): 3.64 µM | TGI (BT-549 breast): 25 µM | GI50 (RXF 393 renal): 2.78 µM | TGI (RXF 393 renal): 12.9 µM | GI50 (LOX IMVI melanoma): 5.03 µM | TGI (LOX IMVI melanoma): 46.2 µM | GI50 (MDA-MB-435): 4.83 µM | TGI (MDA-MB-435): 74.9 µM | GI50 (OVCAR-3 ovarian): 5.77 µM | TGI (OVCAR-3 ovarian): 28.9 µM | GI50 (CAKI-1 renal): 1.61 µM | TGI (CAKI-1 renal): 7.76 µM | GI50 (HCC-2998 colon): 13.7 µM | TGI (HCC-2998 colon): 87.9 µM | GI50 (HOP-92 NSCLC): 1.48 µM | TGI (HOP-92 NSCLC): 13.2 µM | GI50 (DU-145 prostate): 8.09 µM | TGI (DU-145 prostate): 21.4 µM | GI50 (HCT-15 colon): 4.26 µM | TGI (HCT-15 colon): > 100 µM | GI50 (OVCAR-8 ovarian): 5.24 µM | TGI (OVCAR-8 ovarian): > 100 µM | GI50 (CCRF-CEM leukemia): 3.73 µM | TGI (CCRF-CEM leukemia): 23 µM | GI50 (A498 renal): 4.63 µM | TGI (A498 renal): 20.1 µM | GI50 (SNB-75 CNS): 3.27 µM | TGI (SNB-75 CNS): 37.7 µM | GI50 (U251 CNS): 5.06 µM | TGI (U251 CNS): 25 µM | GI50 (NCI-H522 lung): 5.8 µM | TGI (NCI-H522 lung): 38.7 µM | GI50 (SNB-19 CNS): 13.5 µM | TGI (SNB-19 CNS): 69.2 µM | GI50 (SK-MEL-28 melanoma): 10.8 µM | TGI (SK-MEL-28 melanoma): 29.9 µM | GI50 (OVCAR-5 ovarian): 16.1 µM | TGI (OVCAR-5 ovarian): 91.5 µM | GI50 (IGROV1 ovarian): 2.07 µM | TGI (IGROV1 ovarian): 62 µM | GI50 (RPMI-8226 leukemia): 3.32 µM | TGI (RPMI-8226 leukemia): 20 µM | GI50 (SF-295 CNS): 2.4 µM | TGI (SF-295 CNS): 16.6 µM | GI50 (MOLT-4 leukemia): 1.8 µM | TGI (MOLT-4 leukemia): 7.87 µM | GI50 (MCF7 breast): 2.84 µM | TGI (MCF7 breast): 15 µM | GI50 (KM12 colon): 3.06 µM | TGI (KM12 colon): 13 µM | GI50 (SR leukemia): 1.39 µM | TGI (SR leukemia): 5.02 µM | GI50 (HT29 colon): 3.27 µM | TGI (HT29 colon): 12.7 µM | GI50 (SN12C renal): 7.52 µM | TGI (SN12C renal): 42.2 µM | GI50 (HCT-116 colon): 3.51 µM | TGI (HCT-116 colon): 15.2 µM | GI50 (NCI-H23 lung): 8.47 µM | TGI (NCI-H23 lung): 53.5 µM | GI50 (SF-539 CNS): 5.61 µM | TGI (SF-539 CNS): 23.5 µM | GI50 (SK-OV-3 ovarian): 18.8 µM | TGI (SK-OV-3 ovarian): > 100 µM | GI50 (M14 melanoma): 3.65 µM | TGI (M14 melanoma): 17.6 µM | GI50 (TK-10 renal): 5.68 µM | TGI (TK-10 renal): 38.7 µM
